Patent US11963962B2, “Platelet count-agnostic methods of treating myelofibrosis” (Sierra Oncology, Inc., priority 2018, dated 2024)

System: myelofibrosis
Test: SIMPLIFY-2 Phase 3 trial: transfusion independence and TD to TI conversion
Type: in vivo, human
Conditions: for TD to 12w rolling TI Absolute risk difference (Newcombe 95% CI) / TD to W24 TI Absolute risk difference (Newcombe 95% CI) / TI rate Absolute risk difference (Newcombe 95% CI): MMB vs Control
Source text: The improved outcome from MMB therapy that results from practicing the subject methods can be manifested as an improvement in one or more clinical endpoints (e.g., as described herein), such as anemia response, in spleen response and/or symptom response. By “anemia response” is meant an increase in the patient's hemoglobin level or a patient who was transfusion dependent becoming transfusion independent. Desirably, a minimum increase in hemoglobin of 0.5 g/dL, such as 1.0 g/dL 1.5 g/dL or 2.0 g/dL lasting a minimum of 8 weeks is achieved, which is the level of improvement specified in the International Working Group (IWG) consensus criteria. However, smaller, but still medically significant, increases in hemoglobin are also considered to be within the term “anemia response”. “Transfusion independence” is an anemia endpoint and refers to a subject who required no RBC transfusions over a 12 week period and had no hemoglobin levels less than 8 g/dL to 8.5 g/dL over the 12 week period. In some embodiments, the 12 week period of transfusion independence is the terminal 12 weeks of a 24 week study period. By red blood cell (RBC) transfusion independence rate at week 24 of a study is meant the proportion of subjects who were transfusion independent at week 24, excluding cases associated with clinically overt bleeding.
In the SIMPLIFY-2 trial (NCT02101268), the efficacy and safety of MMB was studied in anemic or thrombocytopenic subjects with myelofibrosis who were previously treated with ruxolitinib (RUX). […] Specifically, anemic or thrombocytopenic myelofibrosis patients who had and were previously treated with (RUX) (for at least 28 days) were studied over 24 weeks for response to MMB versus best available treatment (BAT), primarily RUX (89% of patients) but alternatively no treatment or other standard interventions, after which period all patients could receive extended MMB treatment. Previously treated RUX patients who either required red blood cell transfusions or RUX dose reduction with grade 3 thrombocytopenia, anemia, and/or bleeding at grade 3 or worse, with palpable spleen of at least 5 cm and without grade 2 or greater peripheral neuropathy were included in the trial. There was no lower limit for the required baseline platelet count. The primary endpoint was a reduction by at least 35% in the spleen volume at 24 weeks compared with baseline.
FIG. 8A: SIMPLIFY-1 study of MMB in a first line population previously untreated with JAKi. For SIMPLIFY-1, the goal was non-inferiority over ruxolitinib (RUX) (MMB: N=215 subjects, and RUX: N=217 subjects). FIG. 8B: SIMPLIFY-2 study of second line population of anemic or thrombocytopenic subjects previously treated with RUX (red blood cell (RBC) transfusions on RUX=64%. RUX dose adjustment for: thrombocytopenia=21%; anemia/hematoma=35%). For SIMPLIFY-2, the goal was superiority over best available treatment (BAT) (MMB: N=104 subjects, and BAT: N=52 subjects). In both SIMPLIFY-1 and SIMPLIFY: Primary endpoint: >=35% reduction in spleen volume at 24 weeks. Secondary endpoints: Total symptom score (TSS) response at 24 weeks. Effects on RBC transfusion requirements.
The SIMPLIFY 2 clinical trial data was reanalyzed for subgroups of subjects having particular baseline platelet counts in the MMB versus BAT arms of the study.
Patient data was analyzed according to the following baseline platelet count (PLT) subgroups and in particular according to a threshold PLT of 150×10^9/L: 1) PLT<50×10^9/L; 2) 50×10^9/L≤PLT<100×10^9/L; 3) 100×10^9/L≤PLT<150×10^9/L. The reanalyzed data is presented in Table 14 (SIMPLIFY 2).

[1] = SIMPLIFY 2, 50 ≤ PLT < 100 ×10^9/L
[2] = SIMPLIFY 2, 100 ≤ PLT < 150 ×10^9/L
[3] = SIMPLIFY-2, switch from Transfusion Dependent to Independent

SMILES: Cl.N#CCNC(=O)c1ccc(-c2ccnc(Nc3ccc(N4CCOCC4)cc3)n2)cc1 [MMB, N-(cyanomethyl)-4-(2-(4-morpholinophenylamino)pyrimidin-4-yl)benzamide]
- patients TI at week 24 (SIMPLIFY 2): 43%
- transfusion dependent (TD) patients at baseline who were TI at week 24 (SIMPLIFY 2): 32.8%
- TD to 12w rolling TI Responders [1]: 7
- TD to 12w rolling TI proportion (Wilson 95% CI) [1]: 0.54
- TD to W24 TI Responders [1]: 6
- TD to W24 TI proportion (Wilson 95% CI) [1]: 0.46
- TI rate Responders [1]: 18
- TI rate proportion (Wilson 95% CI) [1]: 0.55
- TD to 12w rolling TI Absolute risk difference (Newcombe 95% CI) [1]: 0.27
- TD to W24 TI Absolute risk difference (Newcombe 95% CI) [1]: 0.37
- TI rate Absolute risk difference (Newcombe 95% CI) [1]: 0.15
- TD to 12w rolling TI Responders [2]: 3
- TD to 12w rolling TI proportion (Wilson 95% CI) [2]: 0.23
- TD to W24 TI Responders [2]: 4
- TD to W24 TI proportion (Wilson 95% CI) [2]: 0.31
- TI rate Responders [2]: 10
- TI rate proportion (Wilson 95% CI) [2]: 0.42
- TD to 12w rolling TI Absolute risk difference (Newcombe 95% CI) [2]: 0.03
- TD to W24 TI Absolute risk difference (Newcombe 95% CI) [2]: 0.31
- TI rate Absolute risk difference (Newcombe 95% CI) [2]: 0.42
- TD to 12w rolling TI Responders (SIMPLIFY 2, ITT): 24
- TD to 12w rolling TI proportion (Wilson 95% CI) (SIMPLIFY 2, ITT): 0.41
- TD to W24 TI Responders (SIMPLIFY 2, ITT): 19
- TD to W24 TI proportion (Wilson 95% CI) (SIMPLIFY 2, ITT): 0.33
- TI rate Responders (SIMPLIFY 2, ITT): 45
- TI rate proportion (Wilson 95% CI) (SIMPLIFY 2, ITT): 0.43
- TD to 12w rolling TI Absolute risk difference (Newcombe 95% CI) (SIMPLIFY 2, ITT): 0.23
- TD to W24 TI Absolute risk difference (Newcombe 95% CI) (SIMPLIFY 2, ITT): 0.29
- TI rate Absolute risk difference (Newcombe 95% CI) (SIMPLIFY 2, ITT): 0.22
- TD to 12w rolling TI Responders (SIMPLIFY 2, PLT < 50 ×10^9/L): 3
- TD to 12w rolling TI proportion (Wilson 95% CI) (SIMPLIFY 2, PLT < 50 ×10^9/L): 0.50
- TD to W24 TI Responders (SIMPLIFY 2, PLT < 50 ×10^9/L): 2
- TD to W24 TI proportion (Wilson 95% CI) (SIMPLIFY 2, PLT < 50 ×10^9/L): 0.33
- TI rate Responders (SIMPLIFY 2, PLT < 50 ×10^9/L): 2
- TI rate proportion (Wilson 95% CI) (SIMPLIFY 2, PLT < 50 ×10^9/L): 0.22
- TD to 12w rolling TI Absolute risk difference (Newcombe 95% CI) (SIMPLIFY 2, PLT < 50 ×10^9/L): 0.50
- TD to W24 TI Absolute risk difference (Newcombe 95% CI) (SIMPLIFY 2, PLT < 50 ×10^9/L): 0.33
- TI rate Absolute risk difference (Newcombe 95% CI) (SIMPLIFY 2, PLT < 50 ×10^9/L): 0.22
- transfusion dependence to independence conversion rate at week 24 (SIMPLIFY 2, baseline platelet count subgroup 3 (100 to 150×10^9/L)): 46%
- ≥8 week transfusion independence rate [3]: 46.6%
- ≥12 week transfusion independence rate [3]: 46.6%
